pEC50: −log10 of the molar value. Where two headings read alike, the source gives them in different places.
Experiments:
[1] = Pharmacokinetic test in mice (plasma and brain); format: in vivo, C57 mice; conditions: for F: i.g. 10 mg/kg versus i.v. 2.5 mg/kg
Source text: 2.1 Experimental animals: male C57 mice, 20-25 g, divided into an intravenous group and an intragastric group.
2.2 Experimental design: on the day of the experiment, the C57 mice were randomly grouped according to their body weights. […] Table 2. Administration information
The whole blood was centrifuged to separate the plasma; the brain tissue was rinsed with cold physiological saline to remove the residual blood on the surface, drained out and then homogenized. Before analysis and detection, all samples were stored at -80°C, and the samples were quantitatively analysed by LC-MS/MS. Table 3. Pharmacokinetic parameters of test compounds in mice

M4 receptor = target: T1, M4 receptor (Homo sapiens, UniProt P08173); assay: PAM agonistic activity of compound on M4 receptor (FLIPR Calcium 6 assay in M4-CHO cells); format: cell-based; conditions: with acetylcholine (Ach), final concentration 3 nM
T1 construct: expressed in transfected cells; host or cells: CHO (M4-CHO cells)
T1 sequence (P08173 1-479): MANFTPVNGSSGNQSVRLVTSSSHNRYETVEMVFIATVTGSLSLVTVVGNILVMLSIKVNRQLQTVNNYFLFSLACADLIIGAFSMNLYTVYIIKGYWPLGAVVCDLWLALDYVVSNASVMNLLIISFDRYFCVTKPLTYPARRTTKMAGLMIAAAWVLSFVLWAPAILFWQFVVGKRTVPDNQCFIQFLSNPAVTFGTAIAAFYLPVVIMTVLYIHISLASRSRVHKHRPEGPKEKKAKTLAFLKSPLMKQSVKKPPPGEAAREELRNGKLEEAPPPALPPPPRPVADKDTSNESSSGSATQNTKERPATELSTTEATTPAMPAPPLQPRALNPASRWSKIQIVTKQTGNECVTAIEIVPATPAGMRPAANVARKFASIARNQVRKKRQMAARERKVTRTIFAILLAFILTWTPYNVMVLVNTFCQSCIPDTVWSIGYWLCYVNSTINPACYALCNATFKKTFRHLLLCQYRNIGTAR
Experimental: • 1). Cell plating: M4-CHO cells were digested, collected, and resuspended. After cell counting, the cell suspension was seeded into a 384-well cell plate at a density of: 1.2 × 10^4 cells/25 µL/well. The cell plate was then cultured in a 37°C, 5% CO2 incubator for about 16-20 h. • 2). Day 2: Assay Buffer was prepared according to the instructions of the FLIPR Calcium 6 Assay Kit. Component A (20×) was thawed to room temperature and diluted with the Assay Buffer to prepare a loading buffer (1×), which was stored at room temperature until use. • 3). The culture medium was removed from the cell plate. 40 µL of the loading buffer (1×) was quickly added to each well. The cell plate was then centrifuged and incubated at 37°C in the dark for 120 min. • 4). Working solutions of the positive control compound and the test compounds were prepared. An acetylcholine (Ach) agonist compound solution was prepared (final concentration: 3 nM). The PAM compound and the Ach agonist solution were mixed at a 1 : 1 ratio, and the mixture was transferred into a 384-well compound source plate at 20 µL per well. • 5). The cell plate, the compound source plate, and the pipette tips were placed into the corresponding positions within the FLIPR instrument. 10 µL of the diluted compound from step 4 was added into each experimental well using the FLIPR Tetra. Data was collected at the wavelength of 515 nm-575 nm. • 6). The signal values were plotted against the compound concentrations. Nonlinear regression analysis was performed using GraphPad Prism software for curve fitting and EC50 calculation.
The experimental results are shown in Table 1, where A represents EC50 < […]; B represents 100 nM ≤ EC50 < 500 nM, and C represents 500 nM ≤ EC50. Table 1. Agonistic activity of compounds on M4 receptor

[2] = mouse, in vivo, male C57 mice, plasma, i.v. 2.5 mg/kg and i.g. 10 mg/kg groups, route of the parameter not given
[3] = mouse, male C57 mice, plasma, i.v. 2.5 mg/kg and i.g. 10 mg/kg groups, route of the parameter not given
[4] = mouse, male C57 mice, plasma, i.v. 2.5 mg/kg and i.g. 10 mg/kg groups, route of the parameter not given, read-out: AUC0-t

Row | pEC50 (M4 receptor) | SMILES | also measured
1 | > 7.00 | Cc1nc(-c2cnn(C)c2)nc2c1CN(C(=O)CC1CN(c3ccnc(C(F)(F)F)c3)C1)C2 [Compound 122] | F ([1]; male C57 mice): >98%; Cmax [1, 2]: 6400 ng/mL; clearance [1, 2]: 9.24 mL/min/kg; half-life [1, 2]: 2.94 h; AUC(0-t) ([1]; mouse, in vivo, male C57 mice, plasma, i.v. 2.5 mg/kg and i.g. 10 mg/kg groups, route of the parameter not given, read-out: AUC0-t): 26300 ng·h/mL
2 |  | Cc1cc(C)c2c(n1)CN(C(=O)CC1CN(c3ccnc(C(F)(F)F)c3)C1)C2 [DZ-01, reference compound] | F ([1]; male C57 mice): >98%; Cmax [1, 3]: 3800 ng/mL; clearance [1, 3]: 75.1 mL/min/kg; half-life [1, 3]: 1.23 h; AUC(0-t) [1, 4]: 3610 ng·h/mL
3 | > 7.00 | Cc1cc(=O)n(C)c2c1CN(C(=O)CC1CN(c3ccnc(OC4CC(F)(F)C4)c3)C1)C2 [Compound 101] | 
4 | > 7.00 | Cc1csc(-c2cc(N3CC(CC(=O)N4Cc5nc(C)cc(C)c5C4)C3)ccn2)c1 [Compound 23] | 
5 | > 7.00 | Cc1cc(-c2cnn(C)c2)nc2c1CN(C(=O)CC1CN(c3ccnc(OC4CC4)c3)C1)C2 [Compound 148] | 
6 | > 7.00 | Cc1cc(=O)n(C)c2c1CN(C(=O)CC1CN(c3ccc4c(c3)CCC4=O)C1)C2 [Compound 131] | 
7 | > 7.00 | Cc1c2c(n(C)c(=O)c1F)CN(C(=O)CC1CN(c3ccnc(OC4CC4)c3)C1)C2 [Compound 215] | 
8 | > 7.00 | Cc1cc(C)c2c(n1)CN(C(=O)CC1CN(c3ccnc(OC4CCC(F)(F)C4)c3)C1)C2 (stereo not shown) [Compound 83] | 
9 | > 7.00 | Cc1cc(=O)n(C(F)F)c2c1CN(C(=O)CC1CN(c3ccnc(OC4CC(=C(F)F)C4)c3)C1)C2 (stereo not shown) [Compound 200] | 
10 | > 7.00 | Cc1c2c(n(C)c(=O)c1F)CN(C(=O)CC1CN(c3ccnc(OC4CCOC4)c3)C1)C2 (stereo not shown) [Compound 199] | 
11 | > 7.00 | Cc1cc(C)c2c(n1)CN(C(=O)CC1CN(c3ccnc(-c4ccc5ccnn5c4)c3)C1)C2 [Compound 63] | 
12 | > 7.00 | Cc1nc(-c2cnn(C)c2)nc2c1CN(C(=O)CC1CN(c3ccnc(OC4CC(F)(F)C4)c3)C1)C2 [Compound 143] | 
13 | > 7.00 | C=C1CC(Oc2cc(N3CC(CC(=O)N4Cc5nc(-c6cnn(C)c6)cc(C)c5C4)C3)ccn2)C1 [Compound 166] | 
14 | > 7.00 | Cc1ncn(-c2cc(N3CC(CC(=O)N4Cc5nc(-c6cnn(C(F)F)c6)cc(C)c5C4)C3)ccn2)n1 [Compound 150] | 
15 | > 7.00 | Cc1ccn(-c2cc(N3CC(CC(=O)N4Cc5c(C)c(F)c(=O)n(C(F)F)c5C4)C3)ccn2)n1 [Compound 208] | 
16 | > 7.00 | Cc1cc(C)c2c(n1)CN(C(=O)CC1CN(c3ccc4c(c3)C(F)C(F)C4)C1)C2 (racemic) [Compound 12, isomer 2] | 
17 | > 7.00 | Cc1c2c(n(C)c(=O)c1F)CN(C(=O)CC1CN(c3ccnc(OC4CC(=C(F)F)C4)c3)C1)C2 (stereo not shown) [Compound 213] | 
18 | > 7.00 | Cc1cc(C)c2c(n1)CN(C(=O)CC1CN(c3ccnc(-c4ccnc(C(F)(F)F)c4)c3)C1)C2 [Compound 16] | 
19 | > 7.00 | Cc1cc(C)c2c(n1)CN(C(=O)CC1CN(c3ccnc(Oc4cnn(C)c4)c3)C1)C2 [Compound 53] | 
20 | > 7.00 | Cc1ncn(-c2cc(N3CC(CC(=O)N4Cc5nc(-c6ccnn6C)nc(C)c5C4)C3)ccn2)n1 [Compound 146] | 
21 | > 7.00 | Cc1ccn(-c2cc(N3CC(CC(=O)N4Cc5nc(-c6cnn(C)c6)nc(C)c5C4)C3)ccn2)n1 [Compound 123] | 
22 | > 7.00 | Cc1cc(C)c2c(n1)CN(C(=O)CC1CN(c3ccnc(Cn4cc(C(F)(F)F)cn4)c3)C1)C2 [Compound 189] | 
23 | > 7.00 | Cc1cc(C)c2c(n1)CN(C(=O)CC1CN(c3ccnc(C(=O)NC4CC4)c3)C1)C2 [Compound 38] | 

Row | pEC50 (M4 receptor) | SMILES | also measured
24 | > 7.00 | Cc1ncn(-c2cc(N3CC(CC(=O)N4Cc5c(C)cc(=O)n(C)c5C4)C3)ccn2)n1 [Compound 127] | 
25 | > 7.00 | Cc1ccn(-c2cc(N3CC(CC(=O)N4Cc5nc6c(c(C)c5C4)CCC6)C3)ncn2)n1 [Compound 92] | 
26 | > 7.00 | Cc1cc(C)c2c(n1)CN(C(=O)CC1CN(c3ccnc(O[C@@H]4CCOC4)c3)C1)C2 [Compound 51] | 
27 | > 7.00 | Cc1cc(C)c2c(n1)CN(C(=O)CC1CN(c3ccnc(C(=O)c4cnn(C)c4)c3)C1)C2 [Compound 120] | 
28 | > 7.00 | Cc1cc(=O)n(C)c2c1CN(C(=O)CC1CN(c3ccnc(O[C@@H]4CCOC4)c3)C1)C2 [Compound 118] | 
29 | > 7.00 | Cc1nc(-c2ccnn2C)nc2c1CN(C(=O)CC1CN(c3ccnc(OC4CC(F)(F)C4)c3)C1)C2 [Compound 144] | 
30 | > 7.00 | Cc1cc(C)c2c(n1)CN(C(=O)CC1CN(c3ccnc(-n4cc(C)c(C)n4)c3)C1)C2 [Compound 55] | 
31 | > 7.00 | Cc1cc(-c2cnoc2)nc2c1CN(C(=O)CC1CN(c3ccnc(OC4CC(F)(F)C4)c3)C1)C2 [Compound 216] | 
32 | > 7.00 | Cc1cc(-c2cnn(C)c2)nc2c1CN(C(=O)CC1CN(c3nc(C4CC4)ncc3F)C1)C2 [Compound 204] | 
33 | > 7.00 | Cc1ncn(-c2cc(N3CC(CC(=O)N4Cc5nc(-c6cnn(C)c6)nc(C)c5C4)C3)ccn2)n1 [Compound 130] | 
34 | > 7.00 | Cc1cc(-c2cnn(C)c2)nc2c1CN(C(=O)CC1CN(c3ccnc(OC4CC(F)C4)c3)C1)C2 (single isomer, unassigned) [Compound 156] | 
35 | > 7.00 | Cc1ccn(-c2cc(N3CC(CC(=O)N4Cc5nc(C)cc(C)c5C4)C3)ccn2)c1 [Compound 50] | 
36 | > 7.00 | Cc1cc(=O)n(C)c2c1CN(C(=O)CC1CN(c3ccnc(-n4ccc(C(F)(F)F)n4)c3)C1)C2 [Compound 160] | 
37 | > 7.00 | Cc1nc(-c2cnn(C(F)F)c2)nc2c1CN(C(=O)CC1CN(c3ccnc(C(F)(F)F)c3)C1)C2 [Compound 173] | 
38 | > 7.00 | Cc1cc(-c2cnn(C(F)F)c2)nc2c1CN(C(=O)CC1CN(c3ccnc(C(F)(F)F)c3)C1)C2 [Compound 162] | 
39 | > 7.00 | Cc1cc(=O)n(C)c2c1CN(C(=O)CC1CN(c3ccnc(-n4ccc(F)n4)c3)C1)C2 [Compound 119] | 
40 | > 7.00 | Cc1ncn(-c2cc(C)c3c(n2)CN(C(=O)CC2CN(c4ccnc(C(F)(F)F)c4)C2)C3)n1 [Compound 172] | 
41 | > 7.00 | Cc1cc(C2CCOC2)nc2c1CN(C(=O)CC1CN(c3ccnc(OC4CC(F)(F)C4)c3)C1)C2 (single isomer, unassigned) [Compound 154] | 
42 | > 7.00 | Cc1c2c(n(C)c(=O)c1Cl)CN(C(=O)CC1CN(c3ccnc(OC4CC(F)(F)C4)c3)C1)C2 [Compound 116] | 
43 | > 7.00 | Cc1cc(C2CCOC2)nc2c1CN(C(=O)CC1CN(c3ccnc(-n4ccc(F)n4)c3)C1)C2 (single isomer, unassigned) [Compound 187] | 
44 | > 7.00 | Cc1c2c(nc3c1CN(C(=O)CC1CN(c4ccnc(OC5CCOC5)c4)C1)C3)CCC2 (stereo not shown) [Compound 93] | 
45 | > 7.00 | Cc1cc(C2CCOC2)nc2c1CN(C(=O)CC1CN(c3ccnc(C(F)(F)F)c3)C1)C2 (stereo not shown) [Compound 125] | 

Row | SMILES | pEC50 (M4 receptor) | also measured
46 | Cc1cc(-c2cnn(C)c2)nc2c1CN(C(=O)CC1CN(c3ccnc(OC4CC(F)(F)C4)c3)C1)C2 [Compound 104] | > 7.00 | F ([1]; male C57 mice): >98%; Brain tissue AUC0-t ([1]; mice, i.g. (10 mg/kg)): 4776 ng·h/g; Kp ([1]; mouse, in vivo, po, mice, i.g. (10 mg/kg), read-out: Brain/plasma ratio): 0.528; AUC(0-t) ([1]; mouse, in vivo, po, mice, i.g. (10 mg/kg), read-out: Plasma AUC0-t): 2520 ng·h/mL; Cmax [1, 3]: 4540 ng/mL; clearance [1, 3]: 11.1 mL/min/kg; half-life [1, 3]: 2.2 h; AUC(0-t) [1, 4]: 16900 ng·h/mL
47 | Cc1cc(C)c2c(n1)CN(C(=O)CC1CN(c3ccnc(OC4CC(F)(F)C4)c3)C1)C2 [Compound 25] | > 7.00 | 

From patent EP4733303A1, “MUSCARINIC M4 RECEPTOR AGONIST AND USE THEREOF” (Haisco Pharmaceutical Group Co., Ltd., priority 2023, dated 2024)
